# Measured values reported in a melting point compilation (Tetko et al.; mined from patent text by program, amines drawn as free bases though some values may be those of a salt).
row,Structure (SMILES),melting point [°C]
1,COc1c(Cl)ccc(-c2cc(N)c(Cl)c(C(=O)OCc3ccccc3)n2)c1Cl,107 to 108
2,O=C(O)C1CCCCCCCSC[C@@H](C(=O)O)NC1=O (stereo partly drawn),167 to 170
3,O=C(O)[C@H]1C[C@H](F)CN1,258 to 260
4,CCOc1ccc(S(=O)(=O)N2c3ccc(Cl)cc3C(O)(c3ccccc3Cl)C2C(=O)N(C)CC(=O)OC)cc1 (stereo not drawn),168 to 171
5,c1ccc2c(c1)nc(NC1CCCC1)c1nncn12,257 to 260
6,Cc1noc2cc3c(cc12)C1(CO3)C(=O)N(Cc2ccc(-c3ccno3)cc2)c2ccccc21 (stereo not drawn),192 to 194
7,COc1cc2ncnc(N3CCC(C4(C)CO4)CC3)c2cc1OC (stereo not drawn),125 to 128
8,Cc1c(O)cccc1C(=O)N[C@@H](Cc1ccccc1)[C@H](O)C(=O)N1CSC(C)(C)[C@H]1C(=O)N[C@H]1CCSc2ccccc21,125 to 127
9,CCOc1ccc2c(c1)C(C)=CC(C)(C)N2C1O[C@H](COC(C)=O)[C@@H](OC(C)=O)[C@H](OC(C)=O)[C@H]1OC(C)=O (stereo partly drawn),180 to 181
10,CN(Cc1ccc(NC(=O)C2=Cc3cc(-c4ccc(N5CCCC5)cc4)ccc3OCC2)cc1)C1CCOCC1,210 to 211
11,COC(=O)Cc1ccc(NC(=O)c2sc3ccc(OC)cc3c2OC(C)C)cc1,111 to 113
12,CCCCNS(=O)(=O)c1ccc(S(N)(=O)=O)cc1,164 to 167
13,O=S(=O)(c1ccccc1)c1cc[nH]c1-c1ccc(Cl)cc1,158 to 159
14,CCCCNc1c(C(=O)OCC)c(C)nc(NCC)c1[N+](=O)[O-],53 to 55
15,Clc1cc(N2CCNCC2)c(Cl)nn1,111 to 115
16,O=c1nc(-c2ccc(O)cc2)oc2ccccc12,273 to 275
17,CC(=O)Nc1ccc(CNC(=O)c2cccnc2Oc2ccc(F)cc2)cc1,128 to 130
18,COc1ncccc1-c1cccn2nc(Nc3ccc4ncccc4c3)nc12,247 to 249
19,CCN1C(=O)CCCc2cc(Nc3ncc(Cl)c(N[C@H]4[C@@H](C(N)=O)[C@@H]5C=C[C@H]4C5)n3)c(OC)cc21,145 to 153
20,Cc1ccc(Cc2cnc(NCCCCc3ncc(Br)cc3C)[nH]c2=O)cn1,151 to 152
21,CCn1ncc2c1ncc1c(=O)n3nc(C)cc3n(C)c12,306 to 307

row,Structure (SMILES),melting point [°C]
1,CCN(CC)C(=O)c1cc(-c2ccccc2)ccc1-c1ccc(OC)cc1,139 to 141
2,CCCCCCCCCCCCCCCCNc1ccc(C(=O)NCC(=O)OCC)cc1,97.5 to 99.5
3,CCc1c(C)sc2ncnc(Cl)c12,52 to 56
4,CC(=O)N=C(CCSCc1csc(NC(=N)N)n1)NC(C)=O,180 to 181
5,Clc1cccc(Cl)c1N=C1NCCN1OCc1ccccc1,115 to 117
6,COc1ccc2cc([C@H](C)C(=O)OCCOc3ccc(OCCO[N+](=O)[O-])cc3)ccc2c1,67 to 69
7,Nc1ccc2c(c1)OCC21C(=O)N(CC2CCCO2)c2ccccc21 (stereo not drawn),71 to 74
8,COc1ccc(OC)c(S(=O)(=O)Nc2ccccc2/C=C/c2ccncc2)c1,193 to 195
9,CC(C)c1[nH]c(C(=O)Nc2ccc(C(=O)O)cc2)c(C(C)C)c1C(C)C,> 300
10,CN1CCN2CCCOC2(c2ccccc2)c2cc(Cl)ccc21 (stereo not drawn),142 to 144
11,O=C(O)C1(C(F)F)c2ccccc2Oc2ccccc21,181 to 182
12,O=C(SCCC(=O)N1C(c2ccccc2O)CC[C@H]1C(=O)N[C@@H](Cc1ccccc1)C(=O)O)c1ccccc1 (stereo partly drawn),72 to 102
13,Cc1coc(C(=O)c2ccc(F)c(F)c2Nc2ccc(I)cc2F)n1,127
14,O=C(Nc1ccc(C(F)(F)F)cc1)[C@H]1[C@H](c2ccccc2)C12CCCC2 (relative stereo),171 to 173
15,CC(C)C1NC(=O)CN1C(=O)CNC(=O)CN1CCCC1=O (stereo not drawn),104 to 106
16,CCCCCCCCCCCCCCCNC(=O)OCCOCCOC(=O)N(Cc1ccccn1)C(=O)OCC,52 to 53
17,C=CCN1CCN(c2ncc3c(=O)c(C(=O)OCC)cn(CC)c3n2)CC1,131
18,CC#CC(=O)N[C@H]1CC[C@H](CCN2CCN(c3nccc4c3OCC4)CC2)CC1,176
19,ON=Cc1c(-c2ccccc2F)ccc2c1OCO2,197 to 198
20,Cc1nnc(Sc2ncnc3c(C)csc23)s1,144 to 147
21,C[C@@H](Cn1ncc2ccc(OC[C@@H]3CO3)c(C=O)c21)NC(=O)OCc1ccccc1,90 to 92

row,Structure (SMILES),melting point [°C]
1,FC(F)Oc1ccc(C2=NNCC2n2cc(Cl)cn2)cc1 (stereo not drawn),93
2,O=C1c2ccccc2-c2c1c1ccccc1c(=O)n2CCCCCCCCCCCNS(=O)(=O)c1ccccc1,170 to 172
3,CCCCNC(=O)C(=O)NCCCCCO,136 to 137
4,CC(NC(=O)c1cc(Cl)ccc1NC(=O)C1CC(O)=NN1c1ncccc1Cl)C1CC1 (stereo not drawn),165 to 167
5,O=C(O)C1=Cc2cc(OCc3ccccc3)c(OCc3ccccc3)cc2CCC1,180 to 181
6,CC(NC(CCc1ccccc1)C(=O)O)C(=O)OC(Cc1ccccc1)C(=O)O (stereo not drawn),199 to 200
7,CCOCc1nc2c(N)nc3cc(-c4cccc(C(=O)N5CCCC5)c4)ccc3c2n1CC(C)(C)O,216 to 218
8,CCn1ncc2c1ncc1c(N3CCCCC3)nc3cc(C)nn3c12,176 to 177
9,COC(=O)CCCc1cc2nc(Cl)ccc2n1S(=O)(=O)c1ccc(C(C)C)cc1,75
10,O=c1c2cc3ccccc3cc2oc2cc(OCC3CS3)cc(O)c12 (stereo not drawn),189 to 190
11,Nc1nc2c(ncn2OCCCOCP(=O)(O)O)c(=O)[nH]1,247 to 250
12,COc1ccc2c(c1)C(=O)C(=O)C1=C2OC2(CCN(CC(O)COc3ccc(F)cc3)CC2)CS1 (stereo not drawn),189 to 191
13,CCNc1ccc(C2(C)C(=O)c3c(Cl)cc(Cl)cc3N(Cc3ccccc3)C2=O)cc1 (stereo not drawn),148 to 149
14,CCOC(=O)CC1CN=C(c2cc3c(C)ccc(N(C)S(=O)(=O)c4cccs4)c3[nH]2)S1 (stereo not drawn),109 to 110
15,Nc1nc(NCCN2CCOCC2)nc(-c2cc(Cl)ccc2Cl)n1,159 to 161
16,CCn1ncc(C(=O)c2ccc(S(C)(=O)=O)c(C3=NOCC3)c2Cl)c1OCc1ccccc1,70 to 75
17,COc1cccc(/C(=C/C=C/C(=O)Oc2ccc([N+](=O)[O-])cc2)c2ccccc2)c1,101 to 103
18,COC(=O)C1=C(C)NN=C(C(=O)OC2CCCC2)C1c1ccccc1Cl (stereo not drawn),152
19,CCCn1nc(C(C)C)c(C(=O)OCc2ccccc2C(=O)c2ccccc2)c1Cc1ccc(-c2ccccc2S(=O)(=O)NC(C)(C)C)c(F)c1,49 to 51
20,NOCc1ccn(C(c2ccccc2)(c2ccccc2)c2ccccc2)n1,105 to 110
21,Cc1cc(CCCCCOc2c(Cl)cc(-c3nnc(C)o3)cc2Cl)on1,71 to 72

# The next lines start with the values.
row,melting point [°C],Structure (SMILES)
1,129 to 130,CC(C)(CO)c1cc(C#N)ccc1O
2,250 to 251,CCOC(=O)Cn1c(=O)c(=O)[nH]c2cc(C(F)(F)F)ccc21
3,64 to 67,OCc1cccc(-n2cccc2)c1
4,274 to 275,CCOC(=O)c1nnc2ccc(NS(C)(=O)=O)cc2c1O
5,218 to 219,Cc1c(C)c2c(c(C)c1NC(=O)CC(C)(C)C)C(c1ccc(-c3ccccc3)cc1)CO2 (stereo not drawn)
6,231 to 234,COc1cc2c(cc1C#Cc1ccc(C(=O)O)cc1)C(C)(C)CCC2(C)C
7,207 to 209,CC(C)(C)CC(=O)c1c(-c2ccc3cc(OCC(=O)O)ccc3c2)oc2ccccc12
8,72 to 73,CCC1(c2ccc3cc(OC)ccc3c2)OC(C(=O)OC)C(C(=O)OC)O1 (stereo not drawn)
9,153 to 155,O=C(O)c1ccc(OCC(O)c2cc3ccccc3o2)cc1 (stereo not drawn)
10,120 to 122,COCCc1ccc(OCC(O)C(C)(C)N)cc1 (stereo not drawn)
11,70,COc1cc(Nc2nccc(-c3cccc(OCCO)c3)n2)cc(OC)c1OC
12,112 to 116,CC/C(CO)=C(/c1ccccc1)c1ccc(O)cc1
13,157 to 160,CC(=O)Nc1ccc(OCC(O)CNC(C)(C)C)c(-c2nnco2)c1 (stereo not drawn)
14,221 to 224,COc1ccc(O)cc1CCc1ccc2nc[nH]c(=O)c2c1
15,203 to 205,CCc1sc2c(c1C)c(=O)c1cccc(C(=O)O)c1n2Cc1ccc(-c2ccccc2C#N)cc1
16,181 to 182,CCN(CC)c1ccc(N=Nc2ccc(C#N)c(C#N)c2)c(NC(C)=O)c1
17,97 to 99,CC(C)(CN)Cc1ccc(-c2ccc(CC(C)(C)CN)cc2)cc1
18,132,COC(C)=CC(=O)Nc1cccc(N)c1

row,melting point [°C],Structure (SMILES)
1,202 to 203,O=C(Nc1cccc(C(F)(F)F)c1)c1cc(-c2ccc(F)cc2F)ccc1O
2,103 to 104,COc1cc(OC)nc(Sc2sccc2NS(=O)(=O)C(F)(F)F)n1
3,63 to 65,COc1cc(C(=O)Cl)ccc1OCc1ccccc1
4,97,O=C(NOC(=O)c1ccc(Cl)cc1)OCc1ccccc1
5,> 300,CCCn1cc2c(C3C(=O)Nc4ccc(C#N)cc43)nc(NCCc3ccccn3)nc2n1 (stereo not drawn)
6,86 to 88,CC(c1ccccc1)N1CCC(CO)C1 (stereo not drawn)
7,172 to 175,N#Cc1cn(-c2ccc([N+](=O)[O-])cc2)nc1[N+](=O)[O-]
8,110 to 112,C=C(C)COc1ccc2c(C)cc(=O)oc2c1C(=O)C=Cc1cccnc1
9,66 to 68,Cc1ccc(O)c(C(=O)C2CC2)c1
10,49 to 52,CCOC(=O)Cc1ccc(OCc2ccc3c(c2)OCO3)cc1
11,116 to 118,O=C(O)c1cc([N+](=O)[O-])ccc1NCCc1ccccc1
12,138 to 139,CC(=O)N(CC(C)C)C1NC(=O)N(c2cccs2)C(=O)N1
13,181 to 182,CSC1NC(=O)N(c2ccc(Cl)c(Cl)c2)C(=O)N1N=C(C)C (stereo not drawn)
14,241 to 243,NS(=O)(=O)c1cc(C(=O)O)cc([N+](=O)[O-])c1Nc1ccc(Cl)cc1
15,195 to 196,CS(=O)(=O)Oc1ccc(-n2nc(C#N)cc2-c2ccc(S(C)(=O)=O)cc2)cc1
16,160 to 162,CCOC(=O)NNc1ccc(N(CC)CC(C)O)nn1 (stereo not drawn)
17,118 to 119,COC(=O)CCc1cnoc1-c1ccc([N+](=O)[O-])cc1
